According to the supplement of paper PMC10307832:

How the values were obtained:
Assay in all cases: relative viability (nuclei count vs DMSO), 5 days (fraction); higher = more cells survive
201T = test system: 201T
In short: (§1)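 The day after seeding in 1536-well plates, lung cancer cell lines were treated by pin tool with a single drug, or with a fixed anchor-drug dose together with five library-drug doses (not always all listed) in √10 steps. After 5 days, a combined fix-and-stain solution (final 0.05% Triton X-100, 1% formaldehyde, 1 ug/ml Hoechst) was added. Nuclei counted on 4× images gave relative viability as treated counts over vehicle counts, reported as the median of duplicate plates.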

A-427 = test system: A-427
In short: as §1

COR-L23 = test system: COR-L23
In short: as §1

HARA = test system: HARA
In short: as §1

HCC-78 = test system: HCC-78
In short: as §1

LCLC-103H = test system: LCLC-103H
In short: as §1

LCLC-97TM1 = test system: LCLC-97TM1
In short: as §1

LK-2 = test system: LK-2
In short: as §1

LOU-NH91 = test system: LOU-NH91
In short: as §1

LXF-289 = test system: LXF-289
In short: as §1

NCI-H1650 = test system: NCI-H1650
In short: as §1

NCI-H1651 = test system: NCI-H1651
In short: as §1

NCI-H1793 = test system: NCI-H1793
In short: as §1

NCI-H2347 = test system: NCI-H2347
In short: as §1

NCI-H23 = test system: NCI-H23
In short: as §1

NCI-H2405 = test system: NCI-H2405
In short: as §1

NCI-H520 = test system: NCI-H520
In short: as §1

NCI-H522 = test system: NCI-H522
In short: as §1

NCI-H647 = test system: NCI-H647
In short: as §1

NCI-H838 = test system: NCI-H838
In short: as §1

PC-3 [JPC-3] = test system: PC-3 [JPC-3]
In short: as §1

RERF-LC-KJ = test system: RERF-LC-KJ
In short: as §1

UMC-11 = test system: UMC-11
In short: as §1

CCNC(=O)c1noc(-c2cc(C(C)C)c(O)cc2O)c1-c1ccc(CN2CCOCC2)cc1 [Luminespib] + Nc1ncn([C@H]2C[C@H](O)[C@@H](CO)O2)c(=O)n1 [Decitabine] (partner 2 µM)
relative viability (201T; first compound 0.002 µM): 0.832
relative viability (201T; first compound 0.006325 µM): 0.867
relative viability (201T; first compound 0.02 µM): 0.844
relative viability (201T; first compound 0.06325 µM): 0.811
relative viability (201T; first compound 0.2 µM): 0.827
relative viability (A-427; first compound 0.002 µM): 0.611
relative viability (A-427; first compound 0.006325 µM): 0.514
relative viability (A-427; first compound 0.02 µM): 0.446
relative viability (A-427; first compound 0.06325 µM): 0.599
relative viability (A-427; first compound 0.2 µM): 0.269
relative viability (COR-L23; first compound 0.002 µM): 0.502
relative viability (COR-L23; first compound 0.006325 µM): 0.374
relative viability (COR-L23; first compound 0.02 µM): 0.353
relative viability (COR-L23; first compound 0.06325 µM): 0.0888
relative viability (COR-L23; first compound 0.2 µM): 0.0903
relative viability (HARA; first compound 0.002 µM): 0.55
relative viability (HARA; first compound 0.006325 µM): 0.569
relative viability (HARA; first compound 0.02 µM): 0.532
relative viability (HARA; first compound 0.06325 µM): 0.225
relative viability (HARA; first compound 0.2 µM): 0.227
relative viability (HCC-78; first compound 0.002 µM): 0.644
relative viability (HCC-78; first compound 0.006325 µM): 0.611
relative viability (HCC-78; first compound 0.02 µM): 0.666
relative viability (HCC-78; first compound 0.06325 µM): 0.725
relative viability (HCC-78; first compound 0.2 µM): 0.448
relative viability (LCLC-103H; first compound 0.002 µM): 0.732
relative viability (LCLC-103H; first compound 0.006325 µM): 0.702
relative viability (LCLC-103H; first compound 0.02 µM): 0.721
relative viability (LCLC-103H; first compound 0.06325 µM): 0.74
relative viability (LCLC-103H; first compound 0.2 µM): 0.691
relative viability (LCLC-97TM1; first compound 0.002 µM): 0.249
relative viability (LCLC-97TM1; first compound 0.006325 µM): 0.258
relative viability (LCLC-97TM1; first compound 0.06325 µM): 0.233
relative viability (LCLC-97TM1; first compound 0.2 µM): 0.154
relative viability (LK-2; first compound 0.002 µM): 0.32
relative viability (LK-2; first compound 0.006325 µM): 0.268
relative viability (LK-2; first compound 0.02 µM): 0.192
relative viability (LK-2; first compound 0.06325 µM): 0.0898
relative viability (LK-2; first compound 0.2 µM): 0.0914
relative viability (LOU-NH91; first compound 0.002 µM): 0.8
relative viability (LOU-NH91; first compound 0.006325 µM): 0.844
relative viability (LOU-NH91; first compound 0.02 µM): 0.686
relative viability (LOU-NH91; first compound 0.06325 µM): 0.382
relative viability (LOU-NH91; first compound 0.2 µM): 0.436
relative viability (LXF-289; first compound 0.002 µM): 0.397
relative viability (LXF-289; first compound 0.006325 µM): 0.354
relative viability (LXF-289; first compound 0.02 µM): 0.424
relative viability (LXF-289; first compound 0.06325 µM): 0.392
relative viability (LXF-289; first compound 0.2 µM): 0.367
relative viability (NCI-H1650; first compound 0.002 µM): 0.463
relative viability (NCI-H1650; first compound 0.006325 µM): 0.565
relative viability (NCI-H1650; first compound 0.02 µM): 0.267
relative viability (NCI-H1650; first compound 0.06325 µM): 0.137
relative viability (NCI-H1650; first compound 0.2 µM): 0.133
relative viability (NCI-H1651; first compound 0.002 µM): 0.612
relative viability (NCI-H1651; first compound 0.006325 µM): 0.553
relative viability (NCI-H1651; first compound 0.02 µM): 0.594
relative viability (NCI-H1651; first compound 0.06325 µM): 0.469
relative viability (NCI-H1651; first compound 0.2 µM): 0.226
relative viability (NCI-H1793; first compound 0.002 µM): 0.499
relative viability (NCI-H1793; first compound 0.006325 µM): 0.457
relative viability (NCI-H1793; first compound 0.02 µM): 0.369
relative viability (NCI-H1793; first compound 0.06325 µM): 0.151
relative viability (NCI-H1793; first compound 0.2 µM): 0.185
relative viability (NCI-H2347; first compound 0.002 µM): 0.603
relative viability (NCI-H2347; first compound 0.006325 µM): 0.567
relative viability (NCI-H2347; first compound 0.02 µM): 0.656
relative viability (NCI-H2347; first compound 0.06325 µM): 0.431
relative viability (NCI-H2347; first compound 0.2 µM): 0.373
relative viability (NCI-H23; first compound 0.002 µM): 0.285
relative viability (NCI-H23; first compound 0.006325 µM): 0.346
relative viability (NCI-H23; first compound 0.02 µM): 0.265
relative viability (NCI-H23; first compound 0.06325 µM): 0.164
relative viability (NCI-H23; first compound 0.2 µM): 0.164
relative viability (NCI-H2405; first compound 0.002 µM): 0.79
relative viability (NCI-H2405; first compound 0.02 µM): 0.627
relative viability (NCI-H2405; first compound 0.06325 µM): 0.297
relative viability (NCI-H2405; first compound 0.2 µM): 0.191
relative viability (NCI-H520; first compound 0.002 µM): 0.533
relative viability (NCI-H520; first compound 0.006325 µM): 0.506
relative viability (NCI-H520; first compound 0.02 µM): 0.317
relative viability (NCI-H520; first compound 0.06325 µM): 0.167
relative viability (NCI-H520; first compound 0.2 µM): 0.152
relative viability (NCI-H522; first compound 0.002 µM): 0.626
relative viability (NCI-H522; first compound 0.006325 µM): 0.631
relative viability (NCI-H522; first compound 0.02 µM): 0.593
relative viability (NCI-H522; first compound 0.06325 µM): 0.6
relative viability (NCI-H522; first compound 0.2 µM): 0.451
relative viability (NCI-H647; first compound 0.002 µM): 0.391
relative viability (NCI-H647; first compound 0.006325 µM): 0.484
relative viability (NCI-H647; first compound 0.02 µM): 0.18
relative viability (NCI-H647; first compound 0.06325 µM): 0.0995
relative viability (NCI-H647; first compound 0.2 µM): 0.124
relative viability (NCI-H838; first compound 0.002 µM): 0.495
relative viability (NCI-H838; first compound 0.006325 µM): 0.491
relative viability (NCI-H838; first compound 0.02 µM): 0.422
relative viability (NCI-H838; first compound 0.06325 µM): 0.176
relative viability (NCI-H838; first compound 0.2 µM): 0.193
relative viability (PC-3 [JPC-3]; first compound 0.002 µM): 0.888
relative viability (PC-3 [JPC-3]; first compound 0.006325 µM): 0.842
relative viability (PC-3 [JPC-3]; first compound 0.02 µM): 0.705
relative viability (PC-3 [JPC-3]; first compound 0.06325 µM): 0.397
relative viability (PC-3 [JPC-3]; first compound 0.2 µM): 0.506
relative viability (RERF-LC-KJ; first compound 0.002 µM): 0.759
relative viability (RERF-LC-KJ; first compound 0.006325 µM): 0.669
relative viability (RERF-LC-KJ; first compound 0.02 µM): 0.417
relative viability (RERF-LC-KJ; first compound 0.06325 µM): 0.225
relative viability (RERF-LC-KJ; first compound 0.2 µM): 0.198
relative viability (UMC-11; first compound 0.002 µM): 0.604
relative viability (UMC-11; first compound 0.006325 µM): 0.569
relative viability (UMC-11; first compound 0.02 µM): 0.334
relative viability (UMC-11; first compound 0.06325 µM): 0.56
relative viability (UMC-11; first compound 0.2 µM): 0.23
